Measured values taken from patent EP4800013A1, “PARG INHIBITOR” (Shanghai Qilu Pharmaceutical Research and Development …, priority 2023, dated 2025).

Test: Pharmacokinetic evaluation in CD-1 mice (IV and PO)
Format: in vivo
Details: male, mouse, plasma; for Vd: read-out: Vss
Procedure: Using mice as test animals, the compounds of the present disclosure were administered via intravenous bolus and oral injection. Plasma samples were collected at specific time points. Compound concentrations in plasma were determined by LC-MS/MS, and PK parameters were calculated to characterize the pharmacokinetic behavior of the compounds of the present disclosure in plasma.
CD-1 mice, male, supplied by Zhejiang Vital River Laboratory Animal Technology Co., Ltd.
Dosing regimen for CD-1 mice: Both the IV (intravenous) and PO (oral) experimental groups consisted of 3 mice. The IV group was administered at a dose of 1 mg/kg and a volume of 5 mL/kg. The PO group was administered at a dose of 30 mg/kg and a volume of 10 mL/kg. The dosing vehicle was 5% (v/v) DMSO/10% (v/v) Solutol/85% (v/v) saline.
Following administration, 0.025 mL of blood was collected via venipuncture at the following time points: 0.0833 (IV), 0.25, 0.5, 1, 2, 4, 8, and 24 hours. Blood samples were collected into EDTA-K2 tubes and centrifuged at 4°C and 2000 g for 10 minutes to separate plasma, which was stored at -80°C.
Mouse plasma processing: • 1) 15 µL of plasma was mixed with 200 µL of acetonitrile for protein precipitation. The mixture was vortexed and centrifuged for 15 minutes. • 2) The supernatant after processing was diluted with water and analyzed by LC/MS/MS to determine the concentration of the test compound.
Pharmacokinetic parameters were calculated using WinNonlin 6.1. Specifically, Cmax represents maximum plasma concentration, CL represents clearance, Vss represents volume of distribution at steady state, T1/2 represents terminal elimination half-life, MRTInf represents mean residence time, AUC represents area under the plasma concentration-time curve, and F represents bioavailability. Table 18: Pharmacokinetic parameters of the compounds of the present disclosure in CD-1 mice

Question: With `CCc1nc2n(-c3nnc(C(F)F)s3)c3cc(S(=O)(=O)NC4(C)CC4)cc(N4C[C@H](C)N[C@@H](C)C4)c3n2n1` [Compound 065R] as the compound, how does the AUC (IV, 1 mg/kg) read?
Answer: 0.555 µM·h

Question: What about the MRT inf (IV, 1 mg/kg) of the same compound?
Answer: 2.3 h

Question: What about the clearance (IV, 1 mg/kg) of the same compound?
Answer: 50 mL/min/kg

Question: What about the half-life (IV, 1 mg/kg) of the same compound?
Answer: 2.2 h

Question: What about the Vd (IV, 1 mg/kg) of the same compound?
Answer: 6.8 L/kg

Question: And the AUC (PO, 30 mg/kg)?
Answer: 11.2 µM·h

Question: And the Cmax (PO, 30 mg/kg)?
Answer: 1610 nM

Question: And the MRT inf (PO, 30 mg/kg)?
Answer: 4.6 h

Question: What about the half-life (PO, 30 mg/kg) of the same compound?
Answer: 2.4 h

Question: For `C[C@H]1CN(c2cc(S(=O)(=O)NC3(C)CC3)cc3c2n2nc(C(F)(F)F)nc2n3-c2nnc(C(F)F)s2)C[C@H](C)N1` [Compound 065W], which AUC (IV, 1 mg/kg) is on record?
Answer: 1.26 µM·h

Question: And the MRT inf (IV, 1 mg/kg)?
Answer: 5.6 h

Question: And the clearance (IV, 1 mg/kg)?
Answer: 22 mL/min/kg

Question: And the half-life (IV, 1 mg/kg)?
Answer: 5.2 h

Question: What about the Vd (IV, 1 mg/kg) of the same compound?
Answer: 7.2 L/kg

Question: And the AUC (PO, 30 mg/kg)?
Answer: 18.3 µM·h

Question: What about the Cmax (PO, 30 mg/kg) of the same compound?
Answer: 1980 nM

Question: And the MRT inf (PO, 30 mg/kg)?
Answer: 5.7 h

Question: And the half-life (PO, 30 mg/kg)?
Answer: 3.3 h
